{"source": "patent US12102617B2", "about": "“Antimicrobial compositions containing a synergistic combination of activated creatinine and an imidazole antifungal agent” (Board of Regents of the University of Nebraska, priority 2016, dated 2024)", "key": {"[1]": {"system": "Saccharomyces spp. yeast (baker's yeast)", "assay": "Antifungal MIC evaluation (Example 3)", "format": "cell-based", "conditions": "single agent alone, 24 hours at 37° C.", "procedure": "(§1) The MIC for each solution was determined against the fungi after incubation for 24 hours at 37° C. using two-fold dilutions and flat-bottom 96-well plates."}, "[2]": {"system": "Candida albicans yeast (ATCC1023)", "assay": "Antifungal MIC evaluation (Example 3)", "format": "cell-based", "conditions": "C. albicans yeast, single agent alone, 24 hours at 37° C.", "procedure": "as §1"}, "[3]": {"system": "E. coli (Gram negative; laboratory strain 35150)", "assay": "microbe, parasite or virus in culture", "format": "cell-based", "conditions": "single agent alone, 24 hours at 37° C.", "procedure": "(§2) The antibacterial activity of the clotrimazole/activated creatinine solutions prepared as described in Example 1 was evaluated with respect to Staphylococcus aureus (Gram positive; laboratory strain 29213), E. coli (Gram negative; laboratory strain 35150), and a multiple drug resistant strain of Enterococcus faecalis (Gram positive). The S. aureus and E. coli were purchased from the American Type Culture Collection, and the E. faecalis was a local veterinary clinic isolate. The minimum inhibitory concentration (“MIC”) for each solution was determined against each of the three bacteria after incubation for 24 hours at 37° C. using two-fold dilutions and flat-bottom 96-well plates."}, "[4]": {"system": "multiple drug resistant strain of Enterococcus faecalis (Gram positive)", "assay": "MIC determination, two-fold dilutions in 96-well plates (Example 2)", "format": "cell-based", "conditions": "E. faecalis (multiple drug resistant), single agent alone, 24 hours at 37° C.", "procedure": "as §2"}, "[5]": {"system": "Staphylococcus aureus (Gram positive; laboratory strain 29213)", "assay": "MIC determination, two-fold dilutions in 96-well plates (Example 2)", "format": "cell-based", "conditions": "for antibacterial efficacy against S. aureas (Example 2, FIG. 2): comparative photographs; for MIC: S. aureus, single agent alone, 24 hours at 37° C.", "procedure": "as §2"}, "Penicillium spp. 2": {"system": "Penicillium spp. 2", "assay": "Comparative antifungal testing on LB agar plate wells, mold fungi (Example 4)", "format": "cell-based", "conditions": "0.1% (w/v) solutions in wells of LB agar plate, after 48 hours", "procedure": "(§3) Two species of penicillium, Penicillium spp. 1 and Penicillium spp. 2, were isolated from contaminates that grew on laboratory plates and were grown in LB broth, shaking for three days. One hundred microliters of the fungal broth were added to an LB agar plate and evenly spread on the surface. Test samples containing the following aqueous solutions were prepared: • 0.1% (w/v) clotrimazole (3.4 mM); • 0.1% (w/v) clotrimazole in 200 mM creatinine ethyl ester hydrochloride (“CEE”) (3.4 mM in clotrimazole; 1.7 mol % clotrimazole in the clotrimazole-creatinine mixture); • 0.1% (w/v) ketoconazole (5.3 mM); • 0.1% (w/v) fluconazole (30 mM). […] (2009) Biochem. Biophys. Res. Comm. 388(2):252-255."}, "Penicillium spp. 1": {"system": "Penicillium spp. 1", "assay": "Comparative antifungal testing on LB agar plate wells, mold fungi (Example 4)", "format": "cell-based", "conditions": "0.1% (w/v) solutions in wells of LB agar plate, after 48 hours", "procedure": "as §3"}, "[6]": {"system": "gram negative and gram positive bacteria", "conditions": "both gram negative and gram positive bacteria, including antibiotic resistant organisms; cited from earlier work"}}, "note": "Counter-ions that a name gives are not always drawn. Like-named read-outs stand apart in the source and are kept apart here."}
{"smiles": "Clc1ccccc1C(c1ccccc1)(c1ccccc1)n1ccnc1", "note": "[Clotrimazole, clotrimazole]", "values": [{"measurement": "MIC", "setting": "[1]; read-out: MIC", "result": 7.5, "unit": "mg/mL"}, {"measurement": "MIC", "setting": "[2]; Candida albicans, ATCC1023, read-out: MIC", "result": 6, "unit": "mg/mL"}, {"measurement": "MIC", "setting": "[3]", "result": "no impact on bacterial growth"}, {"measurement": "MIC", "setting": "[4]", "result": "no impact on bacterial growth"}, {"measurement": "antibacterial efficacy against S. aureas (Example 2, FIG. 2)", "setting": "[5]", "result": "ineffective"}, {"measurement": "MIC", "setting": "[5]", "result": "no impact on bacterial growth"}, {"measurement": "inhibition of fungal growth", "setting": "Penicillium spp. 2", "result": "does not exhibit antifungal activity"}, {"measurement": "inhibition of fungal growth", "setting": "Penicillium spp. 2; listed as CLO", "result": "do not"}, {"measurement": "inhibition of fungal growth", "setting": "Penicillium spp. 1", "result": "does not exhibit antifungal activity"}, {"measurement": "inhibition of fungal growth", "setting": "Penicillium spp. 1; listed as CLO", "result": "do not"}]}
{"smiles": "CN1CC(=O)N=C1N", "note": "[activated creatinine, creatinine hydrochloride]", "values": [{"measurement": "MIC", "setting": "[1]", "result": "no impact on fungal growth"}, {"measurement": "MIC", "setting": "[2]", "result": "no impact on fungal growth"}, {"measurement": "MIC", "setting": "[3]; Escherichia coli, read-out: MIC", "result": 21.9, "unit": "mg/mL"}, {"measurement": "MIC", "setting": "[4]; Enterococcus faecalis, read-out: MIC", "result": 21.8, "unit": "mg/mL"}, {"measurement": "antibacterial efficacy against S. aureas (Example 2, FIG. 2)", "setting": "[5]", "result": "ineffective"}, {"measurement": "MIC", "setting": "[5]; Staphylococcus aureus, read-out: MIC", "result": 10.9, "unit": "mg/mL"}, {"measurement": "inhibitory activity against bacteria", "setting": "[6]", "result": "broad spectrum inhibitory activity"}]}
{"smiles": "OC(Cn1cncn1)(Cn1cncn1)c1ccc(F)cc1F", "note": "[fluconazole]", "values": [{"measurement": "inhibition of fungal growth", "setting": "Penicillium spp. 2", "result": "do not"}, {"measurement": "inhibition of fungal growth", "setting": "Penicillium spp. 1", "result": "do not"}]}
{"smiles": "CC(=O)N1CCN(c2ccc(OCC3COC(Cn4ccnc4)(c4ccc(Cl)cc4Cl)O3)cc2)CC1", "note": "(stereo not drawn) [ketoconazole]", "values": [{"measurement": "inhibition of fungal growth", "setting": "Penicillium spp. 2", "result": "do not"}, {"measurement": "inhibition of fungal growth", "setting": "Penicillium spp. 1", "result": "do not"}]}
